According to patent US9578878B2, “Antimicrobial efficacy of an oregano oil and caprylic acid blend” (Kemin Industries, Inc., priority 2014, dated 2017):

What was measured:
[1] = tested on: Escherichia coli (ATCC #8739); experiment: Microtiter assay, MIC to inhibit 90% growth; assay type: cell-based; details: 24 hours, n = 3
Method: (§1) For assays to find minimum inhibitory concentrations, all treatments were diluted in 10% DMSO and 0.5% Tween 80 to stabilize the samples.
(§2) Microorganisms Escherichia coli (ATCC #8739), Streptococcus sanguinis (ATCC #BAA-1455), Salmonella enteria subsp. enterica (ex Kauffmann and Edwards) Le Minor and Popoff serovar Typhimurium (ATCC #14028), Staphylococcus aureus (ATCC #6538), Pseudomonas aeruginosa (ATCC #9027), and Candida albicans (ATCC #10231) were obtained from a −80° C. internal stock culture. Aspergillus brasiliensis (ATCC #16404) was obtained from an internal stock solution culture stored at 4° C. E. coli, S. enterica S. aureus, and P. aeruginosa were grown in tryptic soy broth (TSB) and incubated at 37° C. for 24 h. S. sanguinis was grown in brain heart infusion broth (BHI). A. brasiliensis was plated on Sabourand dextrose agar (SDA) and incubated at 25° C. for 5-7 days. C. albicans was grown in Sabourand dextrose broth (SDB) and incubated at 25° C. for 48 h.
(§3) A. brasiliensis was harvested by adding 18 mL sterile saline to the plate and agitating the mold from the agar with a sterile inoculating loop. The inoculum was collected upon agitation. All suspended microbes were diluted with the same type of broth media used to grow each organism until an inoculum in the range of 10^6 CFU/mL was achieved. The inoculum concentration was determined by plate count method. Each strain was identified by plating on the appropriate growth media, E. coli, S. aureus, and P. aeruginosa on tryptic soy agar (Bacto, BD Sciences, Manassas, Va.) and C. albicans and A. brasiliensis on Sabrouand dextrose agar, to ensure there was no contamination of the inoculum.
(§4) Microtiter Assay. A microtiter assay was completed E. coli, S. aureus, P. aeruginosa, S. enteria, S. sanguinis, and C. albicans. Briefly, 10^6 cfu/ml preparations of each organism were made and enumerated using a Petroff-Hausser counting chamber. A 100 μl aliquot of the inoculums was dispensed into microtiter plate wells and a 100 μl aliquot of treatment was dispensed into the same wells. Two separate set of wells were prepared as positive and negative controls, with the positive wells containing 100 μl test organism in growth media and 100 μl sterile phosphate buffer and with the negative control wells containing 100 μl of the same growth media and 100 μl sterile phosphate buffer. The plates were incubated overnight at the appropriate temperature for each organism. A plate reader was used to track the kinetic growth curve using 405 nm and […]. The last time point at 24 hours was averaged and used to determine MIC90. Each treatment was conducted in triplicate wells.

[2] = tested on: Streptococcus sanguinis (ATCC #BAA-1455); experiment: Microtiter assay, MIC to inhibit 90% growth; assay type: cell-based; details: 24 hours, n = 3
Method: as §1, §2, §3, §4

Salmonella enterica = experiment: Microtiter assay, MIC to inhibit 90% growth; assay type: cell-based; details: 24 hours, n = 3
Method: as §1, §2, §3, §4

[3] = tested on: Candida albicans (ATCC #10231); experiment: Microtiter assay, MIC to inhibit 90% growth; assay type: cell-based; details: 24 hours, n = 3
Method: as §1, §2, §3, §4

[4] = tested on: Pseudomonas aeruginosa (ATCC #9027); experiment: Microtiter assay, MIC to inhibit 90% growth; assay type: cell-based; details: 24 hours, n = 3
Method: as §1, §2, §3, §4

[5] = tested on: Staphylococcus aureus (ATCC #6538); experiment: Microtiter assay, MIC to inhibit 90% growth; assay type: cell-based; details: 24 hours, n = 3
Method: as §1, §2, §3, §4

A. brasiliensis = experiment: Poison agar assay; assay type: cell-based, Aspergillus brasiliensis
Method: as §2, §3
A poison agar assay was completed for A. brasiliensis. Potato dextrose agar was used as the plated medium. Inocula at 10^5 cfu/ml were prepared and counted using a Petroff-Hausser counting chamber. Each treatment was added directly into the control without DMSO and Tween 80 as used in the previous experiments. The diameter of no growth around a 6 mm blank disk after incubation at 25° C. for 72 hrs was compared to the untreated control.

## Cc1ccc(C(C)C)cc1O [Carvacrol, carvacrol]
[1]
  Minimum Inhibitory Concentration (MIC) to inhibit 90% growth, E. coli: 0.10%
[2]
  Minimum Inhibitory Concentration (MIC) to inhibit 90% growth, S. sanguinis: 0.05%
Salmonella enterica
  Minimum Inhibitory Concentration (MIC) to inhibit 90% growth, S. enterica: 0.05%
[3]
  Minimum Inhibitory Concentration (MIC) to inhibit 90% growth, C. albicans: 0.10%
[4]
  Minimum Inhibitory Concentration (MIC) to inhibit 90% growth, P. aeruginosa: >0.1%
[5]
  Minimum Inhibitory Concentration (MIC) to inhibit 90% growth, S. aureus: 0.05%
A. brasiliensis; 0.005% in agar
  % Inhibition from Control: 15.10%
  Diameter of Growth: 6.50 mm
A. brasiliensis; 0.010% in agar
  % Inhibition from Control: 64.70%
  Diameter of Growth: 2.70 mm
A. brasiliensis; 0.030% in agar
  % Inhibition from Control: 100.00%
  Diameter of Growth: 0.00 mm
A. brasiliensis; potato dextrose agar, 25° C., 72 hrs
  MIC90 in the poison agar assay: 0.03%
